Patent US8809280B2, “Therapeutic peptides” (Lytix Biopharma AS, priority 2009, dated 2014)
Values after ≈ are worked out from the molar mass of the structure shown. Where two headings read alike, the source gives them in different places.

Key:
Format in all cases: cell-based
MRC-5 = assay: Toxicity assay MRC-5; details: highest concentration tested 500 μg/ml; for IC50: Homo sapiens, MRC5, Example 2
Protocol: Cells for Toxicity Studies Used MRC-5 and human RBC MRC-5 assay: 500 μg/ml

[1] = test system: Staphylococcus aureus (ATTC 25923); assay: microbe, parasite or virus in culture
Summary of the method: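 Di-TFA salts tested in duplicate at 0.5–200 μg/ml against exponential-phase bacteria at 2×10^6 cfu/ml grown in 2% peptone water. Growth judged by well turbidity, with no-peptide and gentamicin controls.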

A20 = assay: cells; details: for Anticancer potency (IC50) A20: Example 2; for Anticancer potency (IC50) A20 / IC50: highest concentration tested 500 μg/ml, * low solubility in the test media (Table 2); for IC50: Mus musculus, A20, Example 2, read-out: Anticancer potency (IC50) A20; for Anti-Cancer Selectivity MRC-5/A20: ratio of MRC-5 to A20 values; for Anti-Cancer Selectivity RBC/A20: ratio of RBC EC50 to A20 IC50
Protocol: Cancer Cell Lines A20 or MethA Anticancer assays: 500 μg/ml

[2] = test system: methicillin resistant Staphylococcus epidermidis (ATCC 27626); assay: microbe, parasite or virus in culture
Summary of the method: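 Exponentially grown bacteria (2% peptone water) at 2×10^6 cfu/ml exposed in duplicate to di-TFA salts at 0.5–200 μg/ml. Growth or no growth judged by well turbidity; no-peptide and gentamicin controls included.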

human red blood cells = assay: cells
Summary of the method: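 Washed heparinized RBCs, diluted to 10% hematocrit then to 1% v/v final, incubated with compounds in PBS (1–1000 μg/mL) for 1 h at 37 °C with agitation. Hemoglobin release read at 405 nm against PBS (0%) and 0.1% Triton X-100 (100%); value reported is concentration giving 50% hemolysis.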

[3] = test system: Escherichia coli (ATTC 25922); assay: microbe, parasite or virus in culture
Summary of the method: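 Broth dilution in 2% Bacto Peptone water, inoculum 2×10^6 cfu/ml of exponential-phase bacteria; compounds (di-TFA salts) tested in duplicate at 200 down to 0.5 μg/ml. Growth judged by well turbidity, with no-peptide negative and gentamicin positive controls.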

[4] = test system: methicillin resistant Staphylococcus aureus (ATCC 33591); assay: microbe, parasite or virus in culture
Summary of the method: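 Di-TFA salts tested in duplicate at 200 down to 0.5 μg/ml against exponentially grown bacteria at 2×10^6 cfu/ml. Growth judged by well turbidity, with no-peptide and gentamicin controls.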

[5] = test system: Pseudomonas aeruginosa (ATCC 27853); assay: microbe, parasite or virus in culture; details: for MIC: read-out: MIC P. aeruginosa
Protocol: Each compound was tested in duplicates at 200, 100, 50, 35, 15, 10, 5, 2.5, 1, 0.5 μg/ml. All tested compounds were di-trifluoroacetic acid salts.

[6] = Example 2, values separated by / are repeat tests
[7] = Staphylococcus aureus, Example 2, values separated by / are repeat tests, read-out: Antimicrobial potency (MIC) S. aureus
[8] = Staphylococcus epidermidis, ATCC 27626 / MRSE, Example 2, values separated by / are repeat tests, read-out: Antimicrobial potency (MIC) MRSE
[9] = Homo sapiens, Erythrocyte, Example 2, highest concentration tested 1000 μg/ml, * low solubility in the test media, read-out: Toxicity RBC (EC50)
[10] = Escherichia coli, Example 2, values separated by / are repeat tests, read-out: Antimicrobial potency (MIC) E. coli
[11] = Staphylococcus aureus, ATCC 33591 / MRSA, Example 2, values separated by / are repeat tests, read-out: Antimicrobial potency (MIC) MRSA
[12] = Staphylococcus aureus, ATCC25923, Example 4, ATCC 25923, di-trifluoroacetate salts, highest concentration tested 200 μg/ml, read-out: MIC S. aureus
[13] = Staphylococcus epidermidis, ATCC 27626 / MRSE, Example 4, ATCC 27626, di-trifluoroacetate salts, highest concentration tested 200 μg/ml, read-out: MIC MRSE
[14] = Pseudomonas aeruginosa, ATCC27853, Example 4, ATCC 27853, di-trifluoroacetate salts, highest concentration tested 200 μg/ml
[15] = Erythrocyte, Example 4, hemolytic activity, human red blood cells, highest concentration tested 1000 μg/ml, read-out: EC50 RBC
[16] = Escherichia coli, ATCC25922, Example 4, ATCC 25922, di-trifluoroacetate salts, highest concentration tested 200 μg/ml, read-out: MIC E. coli
[17] = Staphylococcus aureus, ATCC33591, Example 4, ATCC 33591, di-trifluoroacetate salts, highest concentration tested 200 μg/ml, read-out: MIC MTRSA

SMILES: NCCNC(=O)C(CN)(CCC1CCCCC1)CCC1CCCCC1 [Compound 3, N-(2-aminoethyl)-2-(aminomethyl)-4-cyclohexyl-2-(2-cyclohexylethyl)butanamide]
- IC50 (MRC-5): < 10 mg/L
- Antimicrobial potency (MIC) S. aureus [1, 6]: 10 mg/L
- MIC [1, 7]: 7.5 mg/L
- Anticancer potency (IC50) A20 (A20): 1.7 mg/L
- IC50 (A20): < 3.35 mg/L
- Anti-Cancer Selectivity MRC-5/A20 (A20): (<5.9)
- Anti-Cancer Selectivity RBC/A20 (A20): 36.5
- Antimicrobial potency (MIC) MRSE [2, 6]: 5 mg/L
- MIC [2, 8]: 2.5 mg/L
- EC50 (human red blood cells; [9]): 62 mg/L
- MIC [3, 10]: 15 mg/L
- Antimicrobial potency (MIC) E. coli [3, 6]: 10 mg/L

SMILES: NCCNC(=O)C(CN)(Cc1ccccc1)Cc1ccccc1 [Compound 4]
- IC50 (MRC-5): 261 mg/L (≈ 838 µM)
- MIC [1, 7]: > 200 mg/L
- IC50 (A20): 68.6 mg/L (≈ 220 µM)
- Anti-Cancer Selectivity MRC-5/A20 (A20): 3.8
- MIC [2, 8]: > 200 mg/L
- EC50 (human red blood cells; [9]): > 1000 mg/L
- MIC [3, 10]: > 200 mg/L
- MIC [4, 11]: > 200 mg/L

SMILES: CN(C)CCN1CCN(C(=O)C(CN)(Cc2ccc(C(C)(C)C)cc2)Cc2ccc(C(C)(C)C)cc2)CC1 [Compound 4d]
- MBC S. aureus ([1]; ATTC 25923): >307 µM
- Therapeutic index S. aureus ([1]; ATTC 25923): 26
- MIC ([1]; ATTC 25923, read-out: MIC S. aureus): 13 µM
- MIC S. aureus ([1]; Example 1, ATTC 25923, di TFA salts, highest concentration tested 200 μg/ml): — (The notation “—”denotes no detectable activity (MIC or EC50) within the concentration range tested.)
- MBC MRSE ([2]; ATCC 27626): >307 µM
- Therapeutic index MRSE ([2]; ATCC 27626): 26
- MIC ([2]; ATCC 27626, read-out: MIC MRSE): 13 µM
- MIC MRSE ([2]; Example 1, ATCC 27626, di TFA salts, highest concentration tested 200 μg/ml): — (The notation “—”denotes no detectable activity (MIC or EC50) within the concentration range tested.)
- Therapeutic index P. aeruginosa ([5]; ATCC 27853): 1.3
- MIC ([5]; ATCC 27853): 255 µM (≈ 133 µg/mL)
- EC50 (human red blood cells; red cells of human): 337 µM
- MBC E. coli ([3]; ATTC 25922): >307 µM
- Therapeutic index E. coli ([3]; ATTC 25922): 26
- MIC ([3]; ATTC 25922, read-out: MIC E. coli): 13 µM
- MIC E. coli ([3]; Example 1, ATTC 25922, di TFA salts, highest concentration tested 200 μg/ml): — (The notation “—”denotes no detectable activity (MIC or EC50) within the concentration range tested.)
- MBC MRSA ([4]; ATCC 33591): >307 µM
- Therapeutic index MRSA ([4]; ATCC 33591): 26
- MIC ([4]; ATCC 33591, read-out: MIC MTRSA): 13 µM
- MIC MRSA ([4]; Example 1, ATCC 33591, di TFA salts, highest concentration tested 200 μg/ml): — (The notation “—”denotes no detectable activity (MIC or EC50) within the concentration range tested.)

SMILES: NCCNC(=O)C(CN)(CCCc1ccccc1)CCCc1ccccc1 [Compound 6, N-(2-aminoethyl)-2-(aminomethyl)-5-phenyl-2-(3-phenylpropyl)pentanamide]
- IC50 (MRC-5): 35 mg/L (≈ 95.2 µM)
- Antimicrobial potency (MIC) S. aureus [1, 6]: 50 mg/L
- MIC [1, 7]: 35 mg/L
- IC50 (A20): 8.3 mg/L (≈ 22.6 µM)
- Anti-Cancer Selectivity MRC-5/A20 (A20): 4.2
- Anti-Cancer Selectivity RBC/A20 (A20): 98.8
- MIC [2, 8]: 15 mg/L
- EC50 (human red blood cells; [9]): 820 mg/L
- MIC [3, 10]: 200 mg/L
- MIC [4, 11]: 35 mg/L

SMILES: NCCNC(=O)C(CN)(Cc1ccc(C(F)(F)F)cc1)Cc1ccc(C(F)(F)F)cc1 [Compound 9, 3-amino-N-(2-aminoethyl)-2,2-bis(4-(trifluoromethyl)benzyl)propanamide]
- Toxicity MRC-5 (MRC-5; Example 2): 12 µg/mL
- IC50 (MRC-5): < 10 mg/L
- MIC [1, 7]: 10 mg/L
- Anti-Cancer Selectivity MRC-5/A20 (A20): 10-12
- Anti-Cancer Selectivity RBC/A20 (A20): 287
- MIC [2, 8]: 10 mg/L
- EC50 (human red blood cells; [9]): 287 mg/L
- MIC [3, 10]: 35 mg/L
- MIC [4, 11]: 5 mg/L

SMILES: CC(C)c1ccc(CC(CN)(Cc2ccc(C(C)C)cc2)C(=O)NCCN)cc1 [Compound 10, 3-amino-N-(2-aminoethyl)-2,2-bis(4-isopropylbenzyl)propanamide]
- IC50 (MRC-5): < 6.67 mg/L
- Antimicrobial potency (MIC) S. aureus [1, 6]: 10 mg/L
- MIC [1, 7]: 5 mg/L
- Anti-Cancer Selectivity MRC-5/A20 (A20): (<4.8)
- Anti-Cancer Selectivity RBC/A20 (A20): 33.6
- MIC [2, 8]: 5 mg/L
- EC50 (human red blood cells; [9]): 47 mg/L
- Antimicrobial potency (MIC) MRSA [4, 6]: 10 mg/L
- MIC [4, 11]: 5 mg/L

SMILES: CC(C)(C)c1ccc(CC(CN)(Cc2ccc(C(C)(C)C)cc2)C(=O)NCCN)cc1 [Compound 11, 3-amino-N-(2-aminoethyl)-2,2-bis(4-tert-butylbenzyl)propanamide]
- IC50 (MRC-5): 4 mg/L (≈ 9.44 µM)
- MIC [1, 7]: 2.5 mg/L
- Anti-Cancer Selectivity MRC-5/A20 (A20): 3.6
- Anti-Cancer Selectivity RBC/A20 (A20): 10.9
- MIC [2, 8]: 2.5 mg/L
- EC50 (human red blood cells; [9]): 12 mg/L
- MIC [3, 10]: 5 mg/L
- MIC [4, 11]: 2.5 mg/L

SMILES: Cc1cc(C)cc(CC(CN)(Cc2cc(C)cc(C)c2)C(=O)NCCN)c1 [Compound 12, 3-amino-N-(2-aminoethyl)-2,2-bis(3,5-dimethylbenzyl)propanamide]
- IC50 (MRC-5): 10 mg/L (≈ 27.2 µM)
- MIC [1, 7]: 35 mg/L
- Anticancer potency (IC50) A20 (A20): < 10 mg/L
- IC50 (A20): < 5 mg/L
- Anti-Cancer Selectivity MRC-5/A20 (A20): (>2 )
- Antimicrobial potency (MIC) MRSE [2, 6]: 10 mg/L
- MIC [2, 8]: 5 mg/L
- MIC [3, 10]: 50 mg/L
- Antimicrobial potency (MIC) E. coli [3, 6]: 100 mg/L
- MIC [4, 11]: 35 mg/L

SMILES: CN1CCN(C(=O)C(CN)(Cc2ccc(C(C)(C)C)cc2)Cc2ccc(C(C)(C)C)cc2)CC1 [Entry 5d]
- Therapeutic index S. aureus ([1]; EC50 RBC divided by MIC): 23
- MIC [1, 12]: 15 µM
- Therapeutic index MRSE ([2]; EC50 RBC divided by MIC): 48
- MIC [2, 13]: 7.2 µM
- Therapeutic index P. aeruginosa ([5]; EC50 RBC divided by MIC): 1.2
- MIC [5, 14]: 289 µM
- EC50 (human red blood cells; [15]): 348 µM
- Therapeutic index E. coli ([3]; EC50 RBC divided by MIC): 23
- MIC [3, 16]: 15 µM
- Therapeutic index MRSA ([4]; EC50 RBC divided by MIC): 23
- MIC [4, 17]: 15 µM

SMILES: CN(C)CCNC(=O)C(CN)(Cc1ccc(C(C)(C)C)cc1)Cc1ccc(C(C)(C)C)cc1 [Entry 6d]
- Therapeutic index S. aureus ([1]; EC50 RBC divided by MIC): 37
- MIC [1, 12]: 7.4 µM
- Therapeutic index MRSE ([2]; EC50 RBC divided by MIC): 74
- MIC [2, 13]: 3.7 µM
- Therapeutic index P. aeruginosa ([5]; EC50 RBC divided by MIC): 3.7
- MIC [5, 14]: 74 µM
- EC50 (human red blood cells; [15]): 274 µM
- Therapeutic index E. coli ([3]; EC50 RBC divided by MIC): 37
- MIC [3, 16]: 7.4 µM
- Therapeutic index MRSA ([4]; EC50 RBC divided by MIC): 37
- MIC [4, 17]: 7.4 µM

SMILES: CC(C)(C)c1ccc(CC(CN)(Cc2ccc(C(C)(C)C)cc2)C(=O)NCCN)cc1 [Entry 7d]
- Therapeutic index S. aureus ([1]; EC50 RBC divided by MIC): 4.7
- MIC [1, 12]: 3.8 µM
- Therapeutic index MRSE ([2]; EC50 RBC divided by MIC): 4.7
- MIC [2, 13]: 3.8 µM
- Therapeutic index P. aeruginosa ([5]; EC50 RBC divided by MIC): 0.8
- MIC [5, 14]: 23 µM
- EC50 (human red blood cells; [15]): 18 µM
- Therapeutic index E. coli ([3]; EC50 RBC divided by MIC): 2.3
- MIC [3, 16]: 7.7 µM
- Therapeutic index MRSA ([4]; EC50 RBC divided by MIC): 4.7
- MIC [4, 17]: 3.8 µM
